Source: patent publication US7094394B2, “Methods and compositions for controlling biofilm development” (priority 1997, dated 2006)
“Also recorded” adds a separate entry of the source.

Legend:
[1] = system: P. aeruginosa PAO-JP2 biofilm cell clusters; assay: Effect of detergent (0.2% SDS) on biofilm dispersion, double mutant; format: cell-based, Pseudomonas aeruginosa
Excerpt: (§1) In the present experiment, treatment with the detergent was shown not to affect the biofilm in the absence of released alginate lyase.

[2] = system: P. aeruginosa PAO1 biofilm cell clusters; assay: Effect of detergent (0.2% SDS) on biofilm dispersion, wild type; format: cell-based, Pseudomonas aeruginosa
Procedure: SDS on wild-type P. aeruginosa PAO1. The bacteria were grown in EPRI medium in continuous culture for 10 days (a,d). Following the incubation period, 0.2% SDS was added to the reactor and flow was halted for 30 minutes (b,e). Following incubation with SDS, flow was reinitiated (c,f).
(§2) 3. […] It has been shown previously (Davies, Doctoral Thesis, Montana State University, 1996) that matrix polymer, specifically alginate, prevents the dissolution of P.aeruginosa cell clusters treated with 0.2% SDS. However, when cell clusters are formed in the absence of alginate they are completely disrupted in under 30 minutes (FIGS. 2a, 2b, 2c and 2d). By microscopic examination of cell cluster thickness before and after treatment with SDS or by capturing effluent samples following similar treatment, a quantitative evaluation of the effect of agents capable of blocking the production of detergent resistant matrix material can be made.
as §1
Following 10 days incubation, the biofilm was analyzed for cell to cell distances, cell cluster thickness and response to treatment with 0.2% SDS. […] Finally, when treated with 0.2% SDS by weight, the treated biofilm was disrupted and dispersed within 30 minutes (FIGS. 5a to 5f).

[3] = system: P. aeruginosa PAO-JP1 biofilm cell clusters; assay: Effect of detergent (0.2% SDS) on biofilm dispersion, lasI knockout; format: cell-based, Pseudomonas aeruginosa
Procedure: FIGS. 2a, 2b, 2c, and 2d are cell cluster studies which show the effect of the addition of 0.2% SDS to a biofilm cell cluster of the lasI knockout strain P. aerguginosa PAO-JP1. The strain was grown in EPRI medium for 10 days in continuous culture reactor under flowing conditions (a). SDS was added to the culture reactor and flow was turned off for 30 min (b,c). Following incubation in the presence of SDS, flow was reinitiated (d);
as §2, §1

[4] = system: P. aeruginosa PAO1 wild-type biofilm; assay: Biofilm cell cluster average thickness, wild type; format: cell-based, Pseudomonas aeruginosa; conditions: 10 uM in growing PAO1 biofilm, 10 days incubation
Procedure: (§3) 1. Biofilm average cell cluster depth: This parameter is a measure of the average thickness in microns of cell clusters in a biofilm. Depth measurements are performed microscopically, by measuring the maximum distance from the substratum to the apex of a biofilm cell cluster at the bulk water interface in a steady state biofilm for a minimum of 20 cell clusters. Previous measurements have shown that with P. aeruginosa, the average cell cluster depth is 102.3 um with a standard error of the mean of 20.5 um. When the gene responsible for the production of the homoserine lactone OdDHL is knocked out, the average cell cluster depth drops to only 22.8 um with a standard error of the mean of 10.0.
Continuous culture studies. […]
(§4) Log phase P. aeruginosa were inoculated through a septum approximately 1 cm upstream from the flow cell while flow was maintained. […] Flow through the system was then increased to remove any bacteria attached to the inside surface of the coverslip (as determined by microscopy). […]
An analog of OdDHL, N-(2,2-difluorodecanoyl)-L-homoserine lactone was dissolved in 25% ethanol, 75% water by volume and added at a final concentration of 10 uM to growing biofilm cultures of P. aeruginosa PAO1 wild-type. Following 10 days incubation, the biofilm was analyzed for cell to cell distances, cell cluster thickness and response to treatment with 0.2% SDS. […]

[5] = system: P. aeruginosa PAO1 wild-type biofilm; assay: Average cell to cell distance in biofilm, wild type; format: cell-based, Pseudomonas aeruginosa; conditions: 10 uM in growing PAO1 biofilm, 10 days incubation
Procedure: (§5) 2. Biofilm cell nearest neighbor analysis: This parameter is a measure of the average distance spacing between cells within a biofilm cell cluster or between cells at a substratum. Both measurements are influenced by the presence of the homoserine lactone OdDHL. The nearest neighbor analysis is performed by imaging 20 or more fields in a biofilm reactor and electronically determining the centroid of each cell. The relative distances from a marker cell to all other cells is computed and iterated for each cell in the population. The average nearest neighbor is then calculated. […] When OdDHL is added to the nutrient feed of the mutant defective in the production of that HSL, the average nearest neighbor increases to just over 9 um in distance.
An analog of OdDHL, N-(2,2-difluorodecanoyl)-L-homoserine lactone was dissolved in 25% ethanol, 75% water by volume and added at a final concentration of 10 uM to growing biofilm cultures of P. aeruginosa PAO1 wild-type. Following 10 days incubation, the biofilm was analyzed for cell to cell distances, cell cluster thickness and response to treatment with 0.2% SDS. […] Finally, when treated with 0.2% SDS by weight, the treated biofilm was disrupted and dispersed within 30 minutes (FIGS. 5a to 5f).

algD promoter = assay: Alginate promoter reporter activity (beta-galactosidase), algD; format: cell-based, P. aeruginosa strain 8830; conditions: batch culture 48 hours, 10 uM OdDHL or 20 uM BHL
Procedure: (§6) FIGS. 3a and 3b are alginate promoter studies which show the activity of the alginate promoters algC, and algD. Cultures of P. aeruginosa strain 8830 were grown for 48 hours in batch culture flasks containing EPRI medium. Test flasks were amended by either 10 uM OdDHL (PAI), 20 uM BHL (butyryl-L-homoserine lactone) or both (PAI+BHL). Following incubation, cells were harvested and promoter activity was measured as specific activity of the beta-galactosidase reporter enzyme as normalized to cell protein.
(§7) 4. […] Alginate is a common matrix material in biofilms, and is not exclusive to P. aeruginosa. The sensitivity of P. aeruginosa to HSL activity provides a rapid assay for HSLs that is sensitive and quantitative. The responsiveness of the specific biofilm genes algC and algD to HSL activity allows assays to be performed in liquid or on semi solid medium. This provides the opportunity to perform rapid screening of test molecules for their effect on alginate production.

algC promoter = assay: Alginate promoter reporter activity (beta-galactosidase), algC; format: cell-based, P. aeruginosa strain 8830; conditions: batch culture 48 hours, 10 uM OdDHL or 20 uM BHL
Procedure: as §6, §7

[6] = system: P. aeruginosa PAO-JP1 biofilm; assay: Biofilm average cell cluster depth, OdDHL knockout; format: cell-based, Pseudomonas aeruginosa; conditions: OdDHL added back to nutrient feed of OdDHL knockout; standard error 25.2
Procedure: as §3
(§8) Continuous culture studies. A continuous culture apparatus was developed to observe the growth and development of biofilms attached to a glass substratum. The apparatus was configured as a once through flow cell system. The influent defined culture medium was retained in a four liter glass reservoir. […]
as §4

[7] = system: P. aeruginosa PAO-JP2 biofilm; assay: Biofilm architecture recovery in double mutant (microscopy); format: cell-based, Pseudomonas aeruginosa; conditions: double mutant cultured with 10 μM OdDHL in fresh medium
Excerpt: The most unequivocal experimental design, to determine the role of HSL signal molecules on the formation of biofilms by cells of P. aeruginosa, was to use direct microscopic methods to monitor biofilm formation by cells of HSL negative mutants. For this reason planktonic cells of a wild-type strain (PAO1), and of three mutants incapable of synthesizing specific HSLs, were introduced into flow cells, and adhesion and biofilm formation were monitored by means of confocal scanning laser microscopy (CSLM). Using these techniques, it is possible to monitor the development of live biofilms of the strains of interest.
as §8, with “reservoir. Medium from the influent reservoir was pumped through silicone tubing via a Masterflex pump to an aeration flask sparged with a filtered air source.” for “reservoir.”
as §4

[8] = system: P. aeruginosa JP1 biofilm; assay: Biofilm cell nearest neighbor analysis, OdDHL knockout; format: cell-based, Pseudomonas aeruginosa; conditions: OdDHL (10 uM) added to nutrient feed of OdDHL-defective mutant, at the substratum
Procedure: as §5

[9] = system: P. aeruginosa PDO100 biofilm; assay: Biofilm dispersion by BHL in rhlI knockout; format: cell-based, Pseudomonas aeruginosa
Procedure: This hypothesis was investigated by growing biofilms of P. aeruginosa PDOlOO and adding BHL to the influent medium at a concentration of 20 μM after 7 days growth. […] When P. aeruginosa PDOIOO was grown in the absence of BHL, medium flow was turned off after 7 days. Following cessation of flow, no dispersion of cell clusters was observed over the duration of the observation period of 96 hours.

CCCCCCCCCCCCOS(=O)(=O)[O-].[Na+] [SDS, sodium dodecyl sulfate]
dispersion of cell clusters by SDS [1]: disperse completely
effect of SDS on cell cluster integrity/dispersion ([2]; 0.2% SDS, untreated wild-type PAO1, sulfate): no effect; also recorded: no dispersion or release of bacteria
dispersion of cell clusters by SDS ([3]; 0.2% SDS, PAO-JP1 without added HSL): disperse completely
time to complete disruption of cell clusters by SDS ([3]; 0.2% SDS, cell clusters formed in the absence of alginate (FIGS. 2a-2d)): under 30 minutes

CCCCCCCCC(F)(F)C(=O)N[C@H]1CCOC1=O [N-(2,2-difluorodecanoyl)-L-homoserine lactone]
cell cluster average thickness [4]: under 20 um
time to disruption and dispersion on treatment with 0.2% SDS ([2]; PAO1 biofilm grown 10 days with 10 uM blocking agent): ≤ 30 min
cell cluster dispersion after 0.2% SDS and reinitiation of flow ([2]; PAO1 cultured 10 days in presence of 20 uM OdDHL analog, SDS 30 minutes without flow): disperses completely
average cell to cell distance [5]: less than 4 um

CCCCCCCCCC(=O)CC(=O)N[C@H]1CCOC1=O [OdDHL, N-(3-oxododecanoyl)-L-homoserine lactone]
algD promoter response (algD promoter): sensitive
algC promoter response (algC promoter): sensitive
dispersion of cell clusters by 0.2% SDS ([3]; PAO-JP1 grown in the presence of 10 μM OdDHL): did not disperse bacteria in the cell clusters
average cell cluster thickness [6]: 100.1 um
biofilm architecture phenotype [7]: recovery of the intermediary phenotype
average nearest neighbor distance [8]: over 9 um

CCCC(=O)N[C@H]1CCOC1=O [BHL, N-butyryl-L-homoserine lactone]
algD promoter response (algD promoter): sensitive
effect on biofilm with medium flow on ([9]; 20 μM BHL in influent medium after 7 days growth, 24 hours): no observable effect
detachment after medium flow shut off ([9]; 20 μM BHL, flow off for 16 hours, detachment continued for three hours): significant detachment
algC promoter response (algC promoter): sensitive
